Test results reported in US6541463B1, “Inhibitors of type 5 and type 3 17β-hydroxysteroid dehydrogenase and methods for their use” (Endorecherche, Inc., priority 1998, dated 2003).

Tested on: Shionogi mouse mammary carcinoma cells
Assay: Androgenic activity: stimulation of proliferation of Shionogi cells
Format: cell-based
How it was run: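 Shionogi mouse mammary carcinoma cells, at 20 000 cells/well in medium with 5% charcoal-stripped FCS, were grown 10–12 days with the inhibitor at 10^−7 M and 10^−6 M in triplicate. Medium was changed every 3–4 days. Proliferation was read by Coulter counting and given as % stimulation.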

| SMILES | Androgenic Activity Shionogi, Basal E^−6 (Table 4′, E^−6) [%] | Androgenic Activity Shionogi, Basal E^−7 (Table 4′, E^−7) [%] | other results |
| --- | --- | --- | --- |
| CC1CC(=O)OC2(CCC3C4CCc5cc(O)ccc5C4CCC32C)C1 [PB-132-142, 3-Hydroxy-1,3,5(10)-estratrien-17(R)-spiro-2′-(4′-methyl-6′-oxo)tetrahydropyran] | −17 | 25 | – |
| C[C@]12CCC3c4cc([N+](=O)[O-])c(O)cc4CCC3C1CC[C@@]21CCCC(=O)O1 (stereo partly drawn) [EM-1124, 2-Nitro-1,3,5(10)-estraetriene-3-ol-17(R)-spiro-2′-(6′-oxo)tetrahydropyran] | −11 | 0 | – |
| COCCOc1cc2c(cc1C#N)C1CC[C@@]3(C)C(CC[C@@]34CCC(C)(C)C(=O)O4)C1CC2 (stereo partly drawn) [EM-1396] | −15 | 0 | – |
| CC1(C)CCC2(CCC3C4CCc5cc(C(=O)OCc6ccccc6)ccc5C4CCC32C)OC1=O (stereo not drawn) [EM-1398] | −10 | 13 | – |
| COc1ccc2c(c1)CCC1C2CCC2(C)C1CCC21CCC(C)(C)C(=O)O1 (stereo not drawn) [EM-1370] | −11 | 12 | – |
| CC1(C)CC[C@@]2(CCC3C4CCc5cc6oncc6cc5C4CC[C@@]32C)OC1=O (stereo partly drawn) [EM-1407-CS, 1,3,5(10)-estratrien-(2,3-oximino)-17(R)-spiro-2′-(5′,5′-dimethyl-6′-oxo)tetrahydropyran] | −23 | 0 | – |
| COCCOc1cc2c(cc1C(=O)OC)C1CC[C@@]3(C)C(CC[C@@]34CCC(C)(C)C(=O)O4)C1CC2 (stereo partly drawn) [EM-1402-CS, 2-Carbomethoxy-3-(2″-methoxyethyloxy)-1,3,5(10)-estratrien 17(R)-spiro-2′-(5′,5′-dimethyl-6′-oxo)tetrahydropyran] | −9 | 0 | – |
| CC1(C)CC[C@@]2(CCC3C4CCc5cc(F)ccc5C4CC[C@@]32C)OC1=O (stereo partly drawn) [EM-1157-CS] | −12 | 16 | – |
| CC1(C)CCC2(CCC3C4CCc5cc(O)c(C(N)=O)cc5C4CCC32C)OC1=O (stereo not drawn) [EM-01660] | −31 | −4 | – |
| COCCOc1ccc2c(c1)CCC1C2CCC2(C)C1CCC21CCC(C)(C)C(=O)O1 [EM-1368-CS, 3-Methoxyethoxy-1,3,5(10)-estratrien-17(R)-spiro-2′-(5′,5′-dimethyl-6′-oxo)-tetrahydropyran] | −22 | 8 | – |
| COc1cc2c(cc1C)C1CCC3(C)C(CCC34CCC(C)(C)C(=O)O4)C1CC2 (stereo not drawn) [EM-1412-CS] | −11 | 0 | – |
| CC12C=CC(=O)C=C1C=CC1C2CCC2(C)C(=O)C3(CCCCC3)CC12 (stereo not drawn) [CS-204] | – | – | Androgenic Activity Shionogi, Basal E^−6 (E^−6): −17; Androgenic Activity Shionogi, Basal E^−7 (E^−7): 0 |
| CC1(C)CC[C@@]2(CCC3C4CCc5cc(C(N)=O)ccc5C4CCC32C)OC1=O (stereo partly drawn) [EM-1404] | 0 | 0 | – |
| CC1(C)CCC2(CCC3C4CCc5cc(O)c([N+](=O)[O-])cc5C4CCC32C)OC1=O (stereo not drawn) [EM-1125-CS] | −10 | 3 | – |
| COCCOc1cc2c(cc1C(F)(F)F)[C@H]1CC[C@@]3(C)[C@@H](CC[C@@]34CCC(C)(C)C(=O)O4)[C@@H]1CC2 [EM-1438, 3-(2′-Methoxyethoxy)-2-trifluoromethyl-1,3,5(10)-estratrien-17(R)-spiro-2′-(5′,5′-dimethyl-6′-oxo)tetrahydropyran] | −14 | 10 | – |
| CC1(C)CCC2(CCC3C4CCc5cc(O)c(C#N)cc5C4CCC32C)OC1=O (stereo not drawn) [EM-01645] | 35 | −5 | – |
| COCCOc1cc2c(cc1Cl)C1CCC3(C)C(CCC34CCC(C)(C)C(=O)O4)C1CC2 (stereo not drawn) [EM-1371-CS] | 92 | 58 | – |
| CC(C)C[C@@H]1CC2C3C=CC4=CC(=O)CC[C@]4(C)C3CC[C@]2(C)C1=O (stereo partly drawn) [EM-1273-CS] | – | – | Androgenic Activity Shionogi, Basal E^−6 (E^−6): −36; Androgenic Activity Shionogi, Basal E^−7 (E^−7): 12 |
| CC1(C)CCC2(CCC3C4CCc5ccccc5C4CCC32C)OC1=O (stereo not drawn) [CS-224] | 0 | 17 | – |
| CCCCN(C)C(=O)[C@@]1(OC(C)=O)CCC2C3C=C(C)C4=CC(=O)CC[C@]4(C)C3CC[C@@]21C (stereo partly drawn) [EM-1165] | – | – | Androgenic Activity Shionogi, Basal (E^−6): −17; Androgenic Activity Shionogi, Basal (E^−7): 5 |
| COCCOc1cc2c(cc1C(N)=O)C1CC[C@@]3(C)C(CC[C@@]34CCC(C)(C)C(=O)O4)C1CC2 (stereo partly drawn) [EM-1424, 2-Carbamoyl-3-(2″-methoxyethyloxy)-1,3,5(10)-estratrien 17(R)-spiro-2′-(5′,5′-dimethyl-6′-oxo)tetrahydropyran] | −17 | 0 | – |
| CCC(=O)O[C@]1(C(C)=O)CCC2C3C=C(C)C4=CC(=O)C[C@H](C)[C@]4(C)C3CC[C@@]21C (stereo partly drawn) [CS-243] | – | – | Androgenic Activity Shionogi, Basal (E^−6): −23; Androgenic Activity Shionogi, Basal (E^−7): −13 |
| C=CCC1CCC2(CCC3C4CCc5cc(O)ccc5C4CCC32C)OC1=O [PB-132-152, 3-Hydroxy-1,3,5(10)-estratrien-17(R)-2′-(5′-allyl-6′-oxo)tetrahydropyran] | 0 | 39 | – |
| CCCC(=O)O[C@]1(C)C(=O)CCC2C3C=C(C)C4=CC(=O)CC[C@]4(C)C3CC[C@@]21C (stereo partly drawn) [EM-1078] | – | – | Androgenic Activity Shionogi, Basal E^−6 (E^−6): 45; Androgenic Activity Shionogi, Basal E^−7 (E^−7): 5 |
| CC1CCC2(CCC3C4CCc5cc(O)c([N+](=O)[O-])cc5C4CCC32C)OC1=O [EM-1126, 2-Nitro-1,3,5(10)-estratrien-3-ol-17(R)-spiro-2′-(5′-methyl-6′-oxo)tetrahydropyran] | −8 | 0 | – |
| CC1(C)CC[C@@]2(CC[C@H]3[C@@H]4CCc5c(cc(Br)c(O)c5Br)[C@H]4CC[C@@]32C)OC1=O [EM-1382-CS] | 0 | 0 | – |
| CC1(C)CCC2(CCC3C4CCc5cc(OCCN6CCCCC6)ccc5C4CCC32C)OC1=O [EM-1390-CS, 3-(N-piperidyl-ethyl)-1,3,5(10)-estratrien-17(R)-spiro-2′-(5′,5′-dimethyl-6′-oxo)-tetrahydropyran] | −43 | −18 | – |
